Measured values published in patent publication US4870060A, “Derivatives of γ-cylodextrin” (Janssen Pharmaceutica, priority 1988, dated 1989).
Values after ≈ are worked out from the molar mass of the structure shown.

What was measured:
[1] = content of 3-chloro-6-[3,6-dihydro-4-(3-methylphenyl)-1(2H)-pyridinyl]pyridazine in solutions of γ-CD derivatives (procedure of example 4); format: physicochemical
Experimental: (§1) Starting from a 5% stock solution of a particular γ-CD derivative in a phosphate buffer of pH 7.4, a dilution series was obtained with concentrations varying of from 0% to 5% with 0.5% steps. 3 ml of these solutions were pipetted into a closed container containing an appropriate amount of progesteron. After 5 days shaking at 25° C., the thus obtained mixture was filtered over a membrane filter (pore diameter: 0.22 μm), and the content of progesteron was determined with high pressure liquid chromatography (using a column of 25 cm length; 5 mm internal diameter; packed with 5 μm ODS-hypersil (RP-18); eluent: acetonitrile/water; U.V. detection). The results of these concentration measurements for a number of the γ-CD derivatives of the present invention and for unsubstituted γ-CD gathered in the following table.
Following the procedures described in example 4 the content of 3-chloro-6-[3,6-dihydro-4-(3-methylphenyl)-1(2H)-pyridinyl]pyridazine was determined in solutions containing various concentrations of γ-CD derivatives. Said pyridazine compound is described in Published Europ. Pat. Appl. No. 0,156,433 as a useful anti-viral agent.

[2] = content of progesteron dissolved in solutions of γ-CD derivatives (phosphate buffer pH 7.4, 5 days shaking at 25° C., HPLC); format: physicochemical; conditions: phosphate buffer pH 7.4, 25° C.
Experimental: as §1

[3] = cited from earlier work
[4] = 1% γ-CD or derivative (weight by volume)
[5] = 2.5% γ-CD or derivative (weight by volume)
[6] = 5% γ-CD or derivative (weight by volume)

In the case of `OC[C@H]1O[C@@H]2O[C@H]3[C@H](O)[C@@H](O)[C@@H](O[C@H]4[C@H](O)[C@@H](O)[C@@H](O[C@H]5[C@H](O)[C@@H](O)[C@@H](O[C@H]6[C@H](O)[C@@H](O)[C@@H](O[C@H]7[C@H](O)[C@@H](O)[C@@H](O[C@H]8[C@H](O)[C@@H](O)[C@@H](O[C@H]9[C@H](O)[C@@H](O)[C@@H](O[C@H]1[C@H](O)[C@H]2O)O[C@@H]9CO)O[C@@H]8CO)O[C@@H]7CO)O[C@@H]6CO)O[C@@H]5CO)O[C@@H]4CO)O[C@@H]3CO` [unsubstituted γ-CD, γ-cyclodextrin], the “content of 3-chloro-6-[3,6-dihydro-4-(3-methylphenyl)-1(2H)-pyridinyl]pyridazine” value [1, 4] is reported as 2.0 µg/mL, the “content of 3-chloro-6-[3,6-dihydro-4-(3-methylphenyl)-1(2H)-pyridinyl]pyridazine” value [1, 5] is reported as 0.8 µg/mL and the “content of 3-chloro-6-[3,6-dihydro-4-(3-methylphenyl)-1(2H)-pyridinyl]pyridazine” value [1, 6] is reported as 0.8 µg/mL. The content of progesteron ([2]; 0.5% γ-CD or derivative (weight by volume)) was 425 µg/mL, the content of progesteron [2, 4] was 343 µg/mL and the content of progesteron ([2]; 1.5% γ-CD or derivative (weight by volume)) was 275 µg/mL. It also gave a content of progesteron ([2]; 2% γ-CD or derivative (weight by volume)) of 203 µg/mL, a content of progesteron [2, 5] of 163 µg/mL and a content of progesteron ([2]; 3% γ-CD or derivative (weight by volume)) of 93 µg/mL. For the same molecule, the content of progesteron ([2]; 3.5% γ-CD or derivative (weight by volume)) was 60 µg/mL, the content of progesteron ([2]; 4% γ-CD or derivative (weight by volume)) was 54 µg/mL and the content of progesteron ([2]; 4.5% γ-CD or derivative (weight by volume)) was 46 µg/mL. The content of progesteron [2, 6] was 45 µg/mL and the water solubility [3] was “excellent water solubility”.

Molecule `CC(=O)[C@H]1CC[C@H]2[C@@H]3CCC4=CC(=O)CC[C@]4(C)[C@H]3CC[C@]12C` [progesteron] has a solubility thermodynamic at 120 h ([2]; aqueous buffer, 0% γ-CD derivative (weight by volume)) of 5.9 µg/mL (≈ 18.8 µM).

`Cc1cccc(C2=CCN(c3ccc(Cl)nn3)CC2)c1` [3-chloro-6-[3,6-dihydro-4-(3-methylphenyl)-1(2H)-pyridinyl]pyridazine] showed a solubility thermodynamic at 120 h ([1]; phosphate buffer ph 7.4, pH 7.4, aqueous buffer, 0% γ-CD derivative (weight by volume)) of 0.4 µg/mL (≈ 1.4 µM).
